Measurements as given in ChEMBL document CHEMBL1148901, “07H239-A, a new cytotoxic eremophilane sesquiterpene from the marine-derived Xylariaceous fungus LL-07H239” (J Nat Prod, 2004).
Values after ≈ are worked out from the molar mass of the structure shown.

Columns and labels:
Type in all cases: functional, cell-based
SW-620 = assay: Cytotoxicity against human SW620 cells
[1] = Cytotoxicity against human A2780S cells; conditions: A2780
LNCaP = assay: Cytotoxicity against human LNCAP cells
SK-BR-3 = assay: Cytotoxicity against human SK-BR-3 cells
SW948 = assay: Cytotoxicity against human SW948 cells
PC-3 = assay: Cytotoxicity against human PC3 cells
Caco-2 = assay: Cytotoxicity against human Caco-2 cells
[2] = Cytotoxicity against human […] cells
[3] = Cytotoxicity against human LS 174T cells; conditions: LS174T
[4] = Cytotoxicity against human NEC cells
DU-145 = assay: Cytotoxicity against human DU145 cells
[5] = Cytotoxicity against human LOX cells
[6] = Cytotoxicity against human A2780DDP cells
LX-1 = assay: Cytotoxicity against human LX1 cells
CX-1 = assay: Cytotoxicity against human CX-1 cells
CCRF-CEM = assay: Cytotoxicity against human CCRF-CEM cells
MCF7 = assay: Cytotoxicity against human MCF7 cells
T47D = assay: Cytotoxicity against human T47D cells
COLO 205 = assay: Cytotoxicity against human COLO205 cells
HCT-15 = assay: Cytotoxicity against human HCT15 cells
A549 = assay: Cytotoxicity against human A549 cells
[7] = Cytotoxicity against human CCL228 cells

C=C(C=O)[C@@H]1C[C@@]2(C)C(=CC1=O)[C@H](OC(=O)/C=C/C=C/C(C)CC(C)CC)CC[C@@H]2C(=O)O (relative stereo)
IC50 (SW-620): 3.6 µg/mL (≈ 7.88 µM) | IC50 [1]: 3.09 µg/mL (≈ 6.77 µM) | IC50 (LNCaP): 3.06 µg/mL (≈ 6.7 µM) | IC50 (SK-BR-3): 3.53 µg/mL (≈ 7.73 µM) | IC50 (SW948): 3.09 µg/mL (≈ 6.77 µM) | IC50 (PC-3): 3.59 µg/mL (≈ 7.86 µM) | IC50 (Caco-2): 3.25 µg/mL (≈ 7.12 µM) | IC50 [2]: 2.47 µg/mL (≈ 5.41 µM) | IC50 [3]: 3.29 µg/mL (≈ 7.21 µM) | IC50 [4]: 3.38 µg/mL (≈ 7.4 µM) | IC50 (DU-145): 3.06 µg/mL (≈ 6.7 µM) | IC50 [5]: 3.43 µg/mL (≈ 7.51 µM) | IC50 [6]: 3.01 µg/mL (≈ 6.59 µM) | IC50 (LX-1): 4.16 µg/mL (≈ 9.11 µM) | IC50 (CX-1): 3.21 µg/mL (≈ 7.03 µM) | IC50 (CCRF-CEM): 0.88 µg/mL (≈ 1.93 µM) | IC50 (MCF7): 2.83 µg/mL (≈ 6.2 µM) | IC50 (T47D): 3.5 µg/mL (≈ 7.67 µM) | IC50 (COLO 205): 3.41 µg/mL (≈ 7.47 µM) | IC50 (HCT-15): 4.08 µg/mL (≈ 8.94 µM) | IC50 (A549): 3.95 µg/mL (≈ 8.65 µM) | IC50 [7]: 3.04 µg/mL (≈ 6.66 µM)
